Consider four compounds from ChEMBL document CHEMBL1201862, “PubChem BioAssay data set” (2004).

Among the test systems are NCI/ADR-RES; MCF7; EKVX; SR; UO-31; COLO 205; OVCAR-8; MOLT-4; UACC-257; SK-MEL-2; OVCAR-5; HCC 2998; ACHN; RPMI-8226; MDA-MB-435; LOX IMVI; CAKI-1; 786-0; OVCAR-4; SK-MEL-5.
Common to all, as to assay: DTP human tumour cell line panel, 48 h

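Each compound was tested at five concentrations against cells in 96-well plates for 48 hours. Here, GI50 denotes the concentration required for 50% inhibition of growth.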 The source made the active and inactive calls. Cut-off read from the data, not from the text of the source: active = GI50 up to about 1.1 µM and inactive = higher.

The GI50 is the concentration that inhibits growth by half.

On to `C#CC1(O)C(COP(=O)(O)OCC2OC(n3ccc(NCCCCCCCCCCCCCCCCCC)nc3=O)C(O)C2O)OC(n2ccc(N)nc2=O)C1O` (stereo not given), for which the GI50 was 0.556 µM (active) in the assay with NCI/ADR-RES; 0.059 µM (active) with MCF7; 8.24 µM (inactive) in the assay with EKVX; < 0.0124 µM (active) with SR; 0.0716 µM (active) with UO-31; 0.71 µM (active) in the assay with COLO 205. The concentration for 50% growth inhibition (GI50) in the assay with OVCAR-8 is 1.07 µM (active); with MOLT-4 it was 0.418 µM (active); with UACC-257 it was 4.05 µM (inactive); in the assay with SK-MEL-2 it was 0.67 µM (active); in the assay with OVCAR-5, 5.36 µM (inactive); in the assay with HCC 2998, 0.703 µM (active). In addition, the concentration for 50% growth inhibition (GI50) was 0.175 µM (active) in the assay with ACHN; 0.142 µM (active) in the assay with RPMI-8226; 0.575 µM (active) in the assay on MDA-MB-435; 0.048 µM (active) in the assay on LOX IMVI; 0.161 µM (active) in the assay with CAKI-1; 4.22 µM (inactive) in the assay with 786-0. In addition, the GI50 in the assay on OVCAR-4 was 1.82 µM (inactive); in the assay on SK-MEL-5, 1.23 µM (inactive).
On to `CCOC(=O)C(Cc1c2ccccc2cc2ccccc12)(NC(C)=O)C(=O)OCC`, for which the GI50 in the assay on NCI/ADR-RES is > 50.2 µM (inactive); in the assay with MCF7, 2.99 µM (inactive); with EKVX, > 100 µM (inactive); with SR it was 70.5 µM (inactive); with UO-31, > 85.9 µM (inactive); in the assay with COLO 205, > 53.2 µM (inactive). Moreover, the GI50 was 67.6 µM (inactive) in the assay with OVCAR-8; 25.8 µM (inactive) in the assay on MOLT-4; > 100 µM (inactive) in the assay with UACC-257; > 100 µM (inactive) in the assay with SK-MEL-2; > 100 µM (inactive) in the assay on OVCAR-5; > 100 µM (inactive) with HCC 2998. Moreover, the GI50 is > 63.1 µM (inactive) in the assay on ACHN; > 100 µM (inactive) with RPMI-8226; > 72.4 µM (inactive) in the assay on MDA-MB-435; > 100 µM (inactive) in the assay on LOX IMVI; 20 µM (inactive) with CAKI-1; 76.4 µM (inactive) in the assay on 786-0. The GI50 was 40.4 µM (inactive) in the assay on OVCAR-4 and > 50.6 µM (inactive) in the assay with SK-MEL-5.
As for `O=C1NCC2(CCN(CC3COc4ccccc4O3)CC2)N1c1ccccc1` (stereo not given), the GI50 in the assay with NCI/ADR-RES, with MCF7, with EKVX, in the assay on SR, in the assay with UO-31 and with COLO 205 was > 100 µM (inactive) throughout. The GI50 with OVCAR-8 was > 100 µM (inactive); in the assay with MOLT-4, 71.1 µM (inactive); in the assay with UACC-257, > 100 µM (inactive); with SK-MEL-2 it was > 100 µM (inactive); in the assay on OVCAR-5 it was > 100 µM (inactive); in the assay with HCC 2998 it was > 100 µM (inactive). Also, the GI50 in the assay on ACHN, in the assay with RPMI-8226, with MDA-MB-435, in the assay on LOX IMVI, in the assay on CAKI-1 and in the assay on 786-0 was > 100 µM (inactive) each time. Also, the GI50 with OVCAR-4 and with SK-MEL-5 was > 100 µM (inactive) each time.
As for `COc1cc(OC(=O)c2ccccc2)cc2c1C(=O)C=CC2=O`, the GI50 with NCI/ADR-RES was 15.2 µM (inactive); in the assay with MCF7, 11 µM (inactive); in the assay with EKVX, 13.2 µM (inactive); in the assay on SR it was 0.469 µM (active); with UO-31 it was 11.2 µM (inactive); in the assay with COLO 205, 16.2 µM (inactive). Besides, the GI50 with OVCAR-8 was 18.9 µM (inactive); in the assay with MOLT-4, 1.73 µM (inactive); in the assay on UACC-257, 16.2 µM (inactive); in the assay with SK-MEL-2, 18.1 µM (inactive); in the assay with OVCAR-5, 32.7 µM (inactive); in the assay with HCC 2998, 4.58 µM (inactive). The GI50 in the assay on ACHN is 12.8 µM (inactive); in the assay on RPMI-8226, 2.93 µM (inactive); with MDA-MB-435 it was 5.65 µM (inactive); with LOX IMVI, 12.3 µM (inactive); in the assay with CAKI-1, 20.6 µM (inactive); with 786-0, 8.39 µM (inactive). For the same compound, the figures for the GI50 with OVCAR-4 and with SK-MEL-5 were 5.4 µM (inactive) and 16 µM (inactive), respectively.
